The record followed here is patent US20080194922A1, “POTENTIATION FOR MEDICAL THERAPIES” (priority 2005, published 2008).

Series [1] deals with multiple myeloma in a cat. The experiment in a line: Narrow therapeutic band established by potentiating the therapy of multiple myeloma in a cat.
In series [2] the test system is cat with multiple myeloma. Briefly: Delta Correlation Function analysis of dexamethasone dose versus food intake, cat myeloma model. Format: in vivo. The following applies: for normalized DCF, food intake versus dexamethasone dose: 1 day off. The source says:
The inventive method was used to analyze changes from day to day. The data was digitized by substituting either +1 for positive change (dayn+i greater than dayn), 0 (zero) for no change, and −1 for negative change (dayn+i less than dayn). Digitizing the change magnifies small changes by giving small differences the same value as large differences. For example, a positive change is noted as +1 whether the change is 1 milligram or 10 grams.
The inventive method multiplied a digitized change in therapy element by the corresponding digitized change in correlation factor to produce a correlation product. Because the digitized changes are signed (+ or −), changes in the same direction (both positive or both negative) produce a positive product. Changes in opposite directions (one negative and one positive) produce a negative product. The inventive method then provided a rolling average of correlation products over fixed period of time. (A positive average indicates a positive correlation between dose and result.)
There is a phase or timing relationship that should be considered. FIG. 15, drawn to the same scale as FIG. 14, illustrates an eighteen day rolling average of correlation product with a one day offset for the change in food intake. That is, the food intake on dayn+i minus the food intake on dayn is multiplied by the dose on dayn minus the dose on dayn—i. In FIGS. 12-14, the product is the food intake on dayn minus the food intake on dayn—i multiplied by the dose on dayn minus the dose on dayn—i.
Because of the delayed effect of some therapies, the invention provides for an “offset,” or staggering, of the corresponding therapy elements and correlation factors that are multiplied to obtain the normalized Delta Correlation Function (DCF).
A method provided by the invention was used to optimize the dexamethasone regimen based on the correlation factor food intake (i.e., determined the dexamethasome regimen that produces an increase in food intake.) Again, the cat myeloma model was used. […] The normalized DCF was calculated based upon a 24 time point sample (Days 445 to 469) with various offsets.

Series [3] deals with cat with multiple myeloma. The experiment in a line: System Functions (linear regression of dexamethasone dose versus food intake) and test of dexamethasone regimens, cat myeloma model. Format: in vivo. The source says:
Based on the foregoing analysis, 3 different dexamethasone regimens where designed and hypothesized systems functions were formulated for predicting the impact of a regimen on food intake. […] In general, the system functions are in the form of:
Predicted Food Intake Dayn (tsp)=(dexamethasone dose Dayn) (mg)×Factor Dayn (tsp/mg);
Predicted Food Intake Dayn+1 (tsp)=[(dexamethasone dose Dayn+1) (mg)×Factor Dayn+1 (tsp/mg)]+Predicted Food Intake Dayn;
Predicted Food Intake Dayn+2 (tsp)=[(dexamethasone dose Dayn+2) (mg)×Factor Dayn+2 (tsp/mg)]+Predicted Food Intake Dayn+1;
wherein “Dayn” is the first day of a three to six day dosing cycle and, if the dexamethasone dose is 0.00, this value is converted to 1.00. “Factor Dayn” is regimen specific and was determined by linear regression analysis of the correlation between dexamethasone dose and food intake performed separately for days 1, 2, and 3 of the cycle a given regimen. For example, all first day dexamethasone administrations were identified in the past data. Food intake for those days were compared to the food intake the day before and averaged, then divided by the dose of dexamethasone for each first day (((Food Intake Dayn (tsp)−Dayn−1 (tsp))/number of first days)/dexamethasone Dayn).
The system functions were used to predict the results with three dexarnethasone regimens. Regimen 1 employs a dosing schedule of 0.250 mg dexamethasone 2 days on and then 1 day off.

[4] abbreviates: thalidomide 1.6 mg, in combination with the other elements of the potentiating protocol.

With `O=C1CCC(N2C(=O)c3ccccc3C2=O)C(=O)N1` (centres unmarked) [thalidomide], in series [1] (setting [4]), the “side effects at minimum dose” value is “without significant thalidomide side effects or resistance” and the “therapeutic effect at minimum dose” value is recorded as “controlled the disease”. The “therapeutic effect above end point of narrow band” value in series [1] (thalidomide doses above 1.8 mg) is “not increased”. In series [1] (thalidomide doses above 1.8 mg, such as peripheral neuropathy), the “adverse side effects above end point of narrow band” value is “increased”.
With `C[C@@H]1C[C@H]2[C@@H]3CCC4=CC(=O)C=C[C@]4(C)[C@@]3(F)[C@@H](O)C[C@]2(C)[C@@]1(O)C(=O)CO` [dexamethasone], the “normalized DCF, food intake versus dexamethasone dose” value is listed as −0.16 in series [2] (0.175 mg/day, 2 days on, Days 445 to 469 (24 time points), same day basis (no offset)); “+0.37” in series [2] (0.175 mg/day, 2 days on, Days 445 to 469, 2 day offset); −0.09 in series [2] (0.175 mg/day, 2 days on, Days 445 to 469, 3 day offset); −0.21 in series [2] (0.175 mg/day, 2 days on, Days 445 to 469, food intake offset by 1 day); “+0.5” in series [2] (0.375 mg, 1 day on, Days 37 to 61, 1 day offset); −0.52 in series [2] (0.375 mg, 1 day on, Days 37 to 61, same day). Also, in series [2] (0.375 mg, 1 day on, 1 day off regimen), the “time required for the dexamethasone therapeutic effect to develop” value was “approximately 1 day”. In series [3] (Regimen 1 (0.250 mg 2 days on, 1 day off), Dayn), the “Factor Dayn of System Function (food intake per dexamethasone dose)” value was −5.11 tsp/mg. The “Factor Dayn+1 of System Function” value in series [3] (Regimen 1, Dayn+1) turned out to be 8.57 tsp/mg; in series [3] (Regimen 2, Dayn+1), 8.57 tsp/mg; in series [3] (Regimen 3, Dayn+1) it was 8.57 tsp/mg. For the same molecule, the “Factor Dayn+2 of System Function” value in series [3] (Regimen 1, Dayn+2 (day off, dose 0.00 converted to 1.00)) is 2.23 tsp/mg; in series [3] (Regimen 2, Dayn+2 (0.125 mg)), −0.53 tsp/mg; in series [3] (Regimen 3, Dayn+2) it was −0.53 tsp/mg. In addition, in series [3] (Regimen 1: 0.250 mg dexamethasone 2 days on, 1 day off, physiologic limit), the food intake reached amounted to 15.5 tsp per day. Further, the “Factor Dayn of System Function” value was −5.11 tsp/mg in series [3] (Regimen 2 (0.250 mg 2 days on, then 1 day at 0.125 mg), Dayn) and −5.11 tsp/mg in series [3] (Regimen 3 (0.125 mg every day, six day cycle), Dayn). The “Factor Dayn+3 of System Function” value in series [3] (Regimen 3, Dayn+3) is on record as −0.10 tsp/mg. Moreover, in series [3] (Regimen 3, Dayn+4), the “Factor Dayn+4 of System Function” value came out at 3.89 tsp/mg. In series [3] (Regimen 3, Dayn+5), the “Factor Dayn+5 of System Function” value is listed as −1.72 tsp/mg. In addition, in series [1] (dexamethasone 0.125 mg (modulated 2 days on, 1 day off), in combination with the other elements of the protocol), the “side effects at minimum dose” value is given as “without significant side effects”. The “adverse side effects above end point of narrow band” value in series [1] (dexamethasone doses above 0.162 mg, such as thromboses and peripheral neuropathy) is listed as “increased”.
